Experimental data published in publication PMC6522981, “Structure-based design generated novel hydroxamic acid based preferential HDAC6 lead inhibitor with on-target cytotoxic activity against primary choroid plexus carcinoma” (Journal of Enzyme Inhibition and Medicinal Chemistry, 2019).
“Also recorded” adds a separate entry of the source. Where two headings read alike, the source gives them in different places.

How the values were obtained:
human HDAC6 = target: T1, human HDAC6 (Homo sapiens, UniProt Q9UBN7); assay: HDAC6 inhibitor enzymatic assay, % inhibition at fixed concentration; conditions: read-out: %inhibition of HDACs at 10µM of test compound HDAC6
T1 sequence (Q9UBN7 1-1215): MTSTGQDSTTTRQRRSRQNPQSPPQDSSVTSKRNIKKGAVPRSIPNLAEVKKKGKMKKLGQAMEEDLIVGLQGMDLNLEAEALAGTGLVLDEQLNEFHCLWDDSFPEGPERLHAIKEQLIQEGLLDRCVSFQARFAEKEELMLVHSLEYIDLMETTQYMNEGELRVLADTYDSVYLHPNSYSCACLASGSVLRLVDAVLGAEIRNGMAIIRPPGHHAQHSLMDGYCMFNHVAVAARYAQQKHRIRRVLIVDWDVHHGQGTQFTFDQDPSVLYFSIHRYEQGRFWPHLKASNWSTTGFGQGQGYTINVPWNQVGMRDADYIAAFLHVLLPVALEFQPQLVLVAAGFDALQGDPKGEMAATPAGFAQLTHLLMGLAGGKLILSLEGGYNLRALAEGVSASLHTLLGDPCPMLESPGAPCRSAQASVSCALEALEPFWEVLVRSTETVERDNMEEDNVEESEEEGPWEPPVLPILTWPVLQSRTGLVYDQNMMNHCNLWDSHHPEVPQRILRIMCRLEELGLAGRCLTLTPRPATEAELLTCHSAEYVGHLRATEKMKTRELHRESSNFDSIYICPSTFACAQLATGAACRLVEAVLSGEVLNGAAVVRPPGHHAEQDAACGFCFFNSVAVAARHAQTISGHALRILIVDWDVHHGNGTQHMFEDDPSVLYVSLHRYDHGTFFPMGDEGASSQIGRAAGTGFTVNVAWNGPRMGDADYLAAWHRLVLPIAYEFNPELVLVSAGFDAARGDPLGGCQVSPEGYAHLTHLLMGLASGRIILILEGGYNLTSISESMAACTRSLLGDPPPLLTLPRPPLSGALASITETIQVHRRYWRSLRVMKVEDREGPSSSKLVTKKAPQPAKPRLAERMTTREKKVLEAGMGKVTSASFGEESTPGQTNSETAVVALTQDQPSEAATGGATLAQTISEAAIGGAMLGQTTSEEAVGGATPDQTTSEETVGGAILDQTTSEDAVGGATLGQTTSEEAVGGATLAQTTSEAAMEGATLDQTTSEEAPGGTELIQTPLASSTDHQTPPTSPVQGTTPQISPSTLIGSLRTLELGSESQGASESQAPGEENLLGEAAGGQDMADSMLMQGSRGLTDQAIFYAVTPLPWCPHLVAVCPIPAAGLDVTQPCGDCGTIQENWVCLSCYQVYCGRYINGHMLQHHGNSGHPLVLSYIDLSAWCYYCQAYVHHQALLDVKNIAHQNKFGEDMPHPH

[1] = tested on: acetylated α-tubulin in CCHE-45 cells; assay: Western blot analysis of acetylated α-tubulin in CCHE-45 cells; type: cell-based; conditions: 100 µM, 24 h
Description: (§1) CCHE-45 cells were treated with 100 µM of test compound for 24 h. HL60 cell line (a kind gift from Professor Azza Kamel from the National Cancer Institute, Cairo University); and is cultured in RPMI-1640 (Lonza, BE-12-702F) supplemented with 10% Fetal Bovine Serum (FBS, Gibco, 12483–020) and 100 U/ml penicillin and 100 µg/ml streptomycin (Lonza, DE17-602F), has also been treated with different concentrations of 10a in twofold serial dilutions for 24 h. Proteins were extracted from CCHE-45 cells using RIPA Lysis and Extraction Buffer (ThermoScientific, cat. No: 89901) containing 100x Halt Protease and […] Inhibitor Cocktail (ThermoScientific, cat. No. 78444). Followed by protein quantification using Bradford Reagent (Pierce Coomassie Plus (Bradford) Assay Reagent) (ThermoScientific, cat. No. 23238). A total of 50 µg proteins were loaded on a 10% SDS page using 30% Acrylamide/Bisacrylamide 19:1(Serva, cat. No. 10679.01) then transferred by semidry transfer method using Bio-Rad Trans-Blot Turbo transfer system on PVDF Transfer Membrane (ThermoScientific, cat. No. 88518). The membranes were incubated overnight at 4 °C in the primary antibodies Mouse monoclonal Anti-Beta Actin antibody (1:100, abcam, ab8224) and Mouse monoclonal Anti-acetylated α Tubulin (1:200, Santa Cruz Biotechnology, sc-23950). […]

[2] = tested on: acetylated α-tubulin in HL60 cells; assay: Western blot analysis of acetylated α-tubulin in HL60 cells; type: cell-based; conditions: 24 h
Description: as §1

human HDAC5 = human HDAC5 (Homo sapiens, UniProt Q9UQL6); assay: HDAC5 inhibitor enzymatic assay, % inhibition at fixed concentration; conditions: read-out: %inhibition of HDACs at 10µM of test compound HDAC5
[3] = tested on: CCHE-45 cells (primary choroid plexus carcinoma); assay: Cytotoxicity assay using xCELLigence system; type: cell-based; conditions: for IC50: xCELLigence, 96 h exposure, mean of three replicates, read-out: CCHE-45 IC50 (µM)±SEM
Description: Established primary Choroid plexus carcinoma (CCHE-45) were cultured as previously described, in RPMI-1640 (Lonza, BE-12-702F) supplemented with 10% Fetal Bovine Serum (FBS, Gibco, 12483–020) and 100 U/ml penicillin and 100 µg/ml streptomycin (Lonza, DE17-602F). Cells were maintained at 37 °C in a 5% CO2 humidified atmosphere.
Cytotoxicity assay by the xCELLigence system was performed using RTCA xCELLigence DP system (ACEA Biosciences, Inc., San Diego, CA, USA) as per manufacturer’s instructions https://www.aceabio.com/products/rtca-dp/, https://www.aceabio.com/products/rtca-sp[65–68]. In brief, after setting up the instruments and blanking the wells with media, CCHE-45 cells were seeded into the 96 well E-plate (ACEA Biosciences) with a density of 20,000 cells/well. Attachment and growth of the cells were monitored every 1 h. Approximately 24 h after seeding, when the cells were in the log growth phase, the cells were exposed to a range of test compound 10a concentrations (3.125, 6.25, 12.5, 25, 50, 100, 200, 400) µM for 96 h. Controls received either medium alone, or medium + DMSO with a final concentration below of 0.5%. For each concentration, duplicates were tested. Experiments were conducted in three biological repeats. Results were analyzed using the RTCA software (Version 2.0). Data was exported and average IC50 value was analyzed.
• Based on previous pilot experiment, the highest SK114 conc. (100µM)
72hrs, thus this experiment was performed with higher concentration
• Cells were incubated with the drug for 96hrs
• Experiment was done in technical duplicates

Chain of human HDAC5 (Q9UQL6 656-1122 limits assumed): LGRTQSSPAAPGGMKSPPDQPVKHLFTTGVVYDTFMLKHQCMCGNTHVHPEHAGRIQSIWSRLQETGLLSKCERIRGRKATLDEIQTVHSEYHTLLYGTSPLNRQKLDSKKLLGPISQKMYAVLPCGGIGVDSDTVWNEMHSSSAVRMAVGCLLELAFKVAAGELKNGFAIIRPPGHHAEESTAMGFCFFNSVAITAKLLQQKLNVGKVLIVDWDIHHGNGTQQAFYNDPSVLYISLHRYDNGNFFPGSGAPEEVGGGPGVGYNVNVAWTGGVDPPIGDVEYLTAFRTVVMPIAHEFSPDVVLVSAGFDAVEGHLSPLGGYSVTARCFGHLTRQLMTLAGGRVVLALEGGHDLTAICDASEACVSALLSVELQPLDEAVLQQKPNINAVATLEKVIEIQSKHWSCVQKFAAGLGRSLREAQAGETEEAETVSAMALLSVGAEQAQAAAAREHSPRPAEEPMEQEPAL

inhibition at 10 µM (human HDAC6): 92% | inhibition at 10 µM (human HDAC5): 4%
Compound: O=C(CCCSc1nc2ccccc2n1Cc1ccccc1)NO [Compound 10a, 4-((1-benzyl-1H-benzo[d]imidazol-2-yl)thio)-N-hydroxybutanamide]
acetylated α-tubulin level (Western blot) [1]: significant increase; also recorded: upregulated acetylated α-tubulin | concentration with significant upregulation of acetylated α-tubulin ([2]; 6.25-100 µM tested): 25 µM | concentration from which acetylated α-tubulin is upregulated ([2]; Figure 6 legend): ≥ 12.5 µM | effect on cell index of CCHE-45, pilot experiment ([3]; 100 µM (highest conc.), 72 hrs): lowered cell index and induced cell death | effect on cell index (CI) of CCHE-45 ([3]; 100 µM, after 24 h from addition of the drug): reduced CI to half the maximum CI | effect on cell index (CI) of CCHE-45 ([3]; 400 µM or 200 µM, monitoring for 96 h): quick and dramatic reduction in cell index | IC50 ([3]; 96 h): 113 µM | IC50 [3]: 113 ± 11.1 µM
